Test results: US20060111437A1, “Hyperlipemia therapeutic agent” (Kowa Co., Ltd., priority 2004, published 2006)

Experiment: Effect on blood triglyceride in rats after repeated oral administration
Type: in vivo
Conditions: male Wistar rats; orally once a day for 21 days; pitavastatin calcium 10 mg/kg and/or EPA-E 1000 mg/kg; blood taken after fasting for 18 hours since final administration; FIG. 1
Protocol: Male Wistar rats aged 6 weeks (Japan Medical Science Experimental Animal Co., Ltd.) were tested. They were fed in a room maintained in a bright and dark cycle (bright duration by a room light: 7:00 a.m. to 7:00 p.m.) at a temperature of 23±3° C. and a humidity of 55±15% through an experimental duration and allowed to freely take a chow (CE-2; Nippon Clear Co., Ltd.) and city water. Pitavastatin calcium was suspended in a 0.5 mass % aqueous solution of sodium carboxymethyl cellulose (Iwai Kagaku Yakuhin Co., Ltd.) and controlled so that a dose was 2 ml/kg. Pitavastatin calcium contained 9.43 mass % of water, and therefore an amount as 1.1 mass time much as the dose was weighed to correct the practical dose. The suspension was refrigerated (4° C.) in a shaded bottle, and it was prepared every 7 days. EPA-E was taken from Epadel capsule (Dainippon Seiyaku Co., Ltd.) in use, suspended in refined water and controlled so that a dose was 2 ml/kg. […] The differences of multiple groups between the control group and the drug-administered groups were analyzed using Dunnett's multiple comparison test, preceded by Bartlett's analysis of variance.

O=C([O-])C[C@H](O)C[C@H](O)/C=C/c1c(C2CC2)nc2ccccc2c1-c1ccc(F)cc1.O=C([O-])C[C@H](O)C[C@H](O)/C=C/c1c(C2CC2)nc2ccccc2c1-c1ccc(F)cc1.[Ca+2] [pitavastatin calcium]
triglyceride concentration in blood: tended to be lowered
